From patent publication US12077503B2, “Substituted cyclic amides and their use as herbicides” (FMC CORPORATION, priority 2015, dated 2024)

What was measured:
Type in all cases: in vivo
[1] = tested on: Kochia (Kochia scoparia); test: Test A preemergence; conditions: Bassia scoparia, pre-emergence, 240 h, 0 to 100 scale where 0 is no effect and 100 is complete control, read-out: Kochia plant response rating; for pest or weed control at 31 g/ha: 31 g ai/ha, Preemergence; for pest or weed control at 125 g/ha: 125 g ai/ha, preemergence, approx. 10 d
In short: (§1)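 Greenhouse, ~10 d after spray; visual injury vs untreated controls, 0 = no effect, 100 = complete control. Preemergence: directed soil spray over planted seeds. Postemergence: plants 2–10 cm, 1–2 leaf stage. Loam/sand blend. Compound in non-phytotoxic solvent with surfactant.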

[2] = tested on: barnyardgrass (Echinochloa crus-galli); test: Test A preemergence; conditions: Echinochloa crus-galli, pre-emergence, 240 h, Preemergence; for pest or weed control at 31 g/ha: 31 g ai/ha, 0 to 100 scale where 0 is no effect and 100 is complete control, read-out: Barnyardgrass plant response rating; for pest or weed control at 125 g/ha: 125 g ai/ha, visual injury rating after approximately 10 d, read-out: Barnyardgrass plant response rating (0 to 100 scale, 0 is no effect, 100 is complete control)
In short: as §1

[3] = tested on: pigweed (Amaranthus retroflexus); test: Test A preemergence; conditions: Amaranthus retroflexus, pre-emergence, 240 h, 0 to 100 scale where 0 is no effect and 100 is complete control, read-out: Pigweed plant response rating; for pest or weed control at 31 g/ha: 31 g ai/ha, Preemergence; for pest or weed control at 125 g/ha: 125 g ai/ha, preemergence, approx. 10 d
[4] = tested on: ragweed (common ragweed, Ambrosia elatior); test: Test A preemergence; conditions: Ambrosia artemisiifolia, pre-emergence, 240 h, 0 to 100 scale where 0 is no effect and 100 is complete control, read-out: Ragweed plant response rating; for pest or weed control at 31 g/ha: 31 g ai/ha, Preemergence; for pest or weed control at 125 g/ha: 125 g ai/ha, preemergence, approx. 10 d
In short: as §1

[5] = tested on: ryegrass, Italian (Italian ryegrass, Lolium multiflorum); test: Test A preemergence; conditions: Lolium multiflorum, pre-emergence, 240 h, 0 to 100 scale where 0 is no effect and 100 is complete control, read-out: Ryegrass, Italian plant response rating; for pest or weed control at 31 g/ha: 31 g ai/ha, Preemergence; for pest or weed control at 125 g/ha: 125 g ai/ha, preemergence, approx. 10 d
In short: as §1

[6] = tested on: Galium (catchweed bedstraw, Galium aparine); test: Test A postemergence; conditions: Galium, post-emergence, 240 h; for pest or weed control at 125 g/ha: 125 g ai/ha, postemergence, visual injury on 0 to 100 scale (0 no effect, 100 complete control), approx. 10 d, read-out: Galium plant response rating; for pest or weed control at 31 g/ha: Postemergence, 31 g ai/ha, visual injury after approx. 10 d, 0 to 100 scale, 0 no effect, 100 complete control, read-out: Plant response rating, Galium
In short: as §1

[7] = tested on: Kochia (Kochia scoparia); test: Test A postemergence; conditions: Bassia scoparia, post-emergence, 240 h; for pest or weed control at 125 g/ha: 125 g ai/ha, postemergence, visual injury on 0 to 100 scale (0 no effect, 100 complete control), approx. 10 d, read-out: Kochia plant response rating; for pest or weed control at 31 g/ha: Postemergence, 31 g ai/ha, visual injury after approx. 10 d, 0 to 100 scale, 0 no effect, 100 complete control, read-out: Plant response rating, Kochia
In short: as §1

[8] = tested on: barnyardgrass (Echinochloa crus-galli); test: Test A postemergence; conditions: Echinochloa crus-galli, post-emergence, 240 h; for pest or weed control at 125 g/ha: 125 g ai/ha, postemergence, visual injury on 0 to 100 scale (0 no effect, 100 complete control), approx. 10 d, read-out: Barnyardgrass plant response rating; for pest or weed control at 31 g/ha: Postemergence, 31 g ai/ha, visual injury after approx. 10 d, 0 to 100 scale, 0 no effect, 100 complete control, read-out: Plant response rating, Barnyardgrass
In short: as §1

[9] = tested on: blackgrass (Alopecurus myosuroides); test: Test A postemergence; conditions: Alopecurus myosuroides, post-emergence, 240 h; for pest or weed control at 125 g/ha: 125 g ai/ha, postemergence, visual injury on 0 to 100 scale (0 no effect, 100 complete control), approx. 10 d, read-out: Blackgrass plant response rating; for pest or weed control at 31 g/ha: Postemergence, 31 g ai/ha, visual injury after approx. 10 d, 0 to 100 scale, 0 no effect, 100 complete control, read-out: Plant response rating, Blackgrass
In short: as §1

[10] = tested on: corn (Zea mays); test: Test A postemergence; conditions: Zea mays, post-emergence, 240 h; for plant injury at 125 g/ha: 125 g ai/ha, postemergence, visual injury on 0 to 100 scale (0 no effect, 100 complete control), approx. 10 d, read-out: Corn plant response rating; for Corn plant response rating (crop injury, 0 = no effect, 100 = complete kill) at 31 g/ha: Postemergence, 31 g ai/ha, visual injury after approx. 10 d, 0 to 100 scale, 100 complete control
In short: as §1

[11] = tested on: giant foxtail (Setaria faberii); test: Test A postemergence; conditions: Setaria faberi, post-emergence, 240 h; for pest or weed control at 125 g/ha: 125 g ai/ha, postemergence, visual injury on 0 to 100 scale (0 no effect, 100 complete control), approx. 10 d, read-out: Foxtail, Giant plant response rating; for pest or weed control at 31 g/ha: Postemergence, 31 g ai/ha, visual injury after approx. 10 d, 0 to 100 scale, 0 no effect, 100 complete control, read-out: Plant response rating, Foxtail, Giant
In short: as §1

[12] = tested on: pigweed (Amaranthus retroflexus); test: Test A postemergence; conditions: Amaranthus retroflexus, post-emergence, 240 h; for pest or weed control at 125 g/ha: 125 g ai/ha, postemergence, visual injury on 0 to 100 scale (0 no effect, 100 complete control), approx. 10 d, read-out: Pigweed plant response rating; for pest or weed control at 31 g/ha: Postemergence, 31 g ai/ha, visual injury after approx. 10 d, 0 to 100 scale, 0 no effect, 100 complete control, read-out: Plant response rating, Pigweed
In short: as §1

[13] = tested on: ragweed (common ragweed, Ambrosia elatior); test: Test A postemergence; conditions: Ambrosia artemisiifolia, post-emergence, 240 h; for pest or weed control at 125 g/ha: 125 g ai/ha, postemergence, visual injury on 0 to 100 scale (0 no effect, 100 complete control), approx. 10 d, read-out: Ragweed plant response rating; for pest or weed control at 31 g/ha: Postemergence, 31 g ai/ha, visual injury after approx. 10 d, 0 to 100 scale, 0 no effect, 100 complete control, read-out: Plant response rating, Ragweed
In short: as §1

[14] = tested on: ryegrass, Italian (Italian ryegrass, Lolium multiflorum); test: Test A postemergence; conditions: Lolium multiflorum, post-emergence, 240 h; for pest or weed control at 125 g/ha: 125 g ai/ha, postemergence, visual injury on 0 to 100 scale (0 no effect, 100 complete control), approx. 10 d, read-out: Ryegrass, Italian plant response rating; for pest or weed control at 31 g/ha: Postemergence, 31 g ai/ha, visual injury after approx. 10 d, 0 to 100 scale, 0 no effect, 100 complete control, read-out: Plant response rating, Ryegrass, Italian
In short: as §1

[15] = tested on: wheat (Triticum aestivum); test: Test A postemergence; conditions: Triticum aestivum, post-emergence, 240 h; for plant injury at 125 g/ha: 125 g ai/ha, postemergence, visual injury on 0 to 100 scale (0 no effect, 100 complete control), approx. 10 d, read-out: Wheat plant response rating; for plant injury at 31 g/ha: Postemergence, 31 g ai/ha, visual injury after approx. 10 d, 0 to 100 scale, 0 no effect, 100 complete control, read-out: Plant response rating, Wheat
In short: as §1

Row | Structure (SMILES) | pest or weed control at 31 g/ha [1] [%] | pest or weed control at 125 g/ha [1] [%] | pest or weed control at 31 g/ha [2] [%] | pest or weed control at 125 g/ha [2] [%] | pest or weed control at 31 g/ha [3] [%] | pest or weed control at 125 g/ha [3] [%] | pest or weed control at 31 g/ha [4] [%] | pest or weed control at 125 g/ha [4] [%] | pest or weed control at 31 g/ha [5] [%] | pest or weed control at 125 g/ha [5] [%] | pest or weed control at 125 g/ha [6] [%] | pest or weed control at 31 g/ha [6] [%] | pest or weed control at 125 g/ha [7] [%] | pest or weed control at 31 g/ha [7] [%] | pest or weed control at 125 g/ha [8] [%] | pest or weed control at 31 g/ha [8] [%] | pest or weed control at 125 g/ha [9] [%] | pest or weed control at 31 g/ha [9] [%] | plant injury at 125 g/ha [10] [%] | Corn plant response rating (crop injury, 0 = no effect, 100 = complete kill) at 31 g/ha [10] [%] | also measured
1 | COc1cccc([C@H]2CN(C)C(=O)[C@@H]2C(=O)Nc2cccc(F)c2F)c1 [Compound 1062] | 0 | 20 | 100 | 100 | 0 | 0 | 70 | 0 | 10 | 20 | 50 | 0 | 0 | 0 | 90 | 70 | 30 | 0 | 0 | 0 | pest or weed control at 125 g/ha [11]: 90%; pest or weed control at 31 g/ha [11]: 90%; pest or weed control at 125 g/ha [12]: 0%; pest or weed control at 31 g/ha [12]: 0%; pest or weed control at 125 g/ha [13]: 30%; pest or weed control at 31 g/ha [13]: 30%; pest or weed control at 125 g/ha [14]: 20%; pest or weed control at 31 g/ha [14]: 0%; plant injury at 125 g/ha [15]: 30%; plant injury at 31 g/ha [15]: 0%
2 | COc1cccc([C@H]2CN(C)C(=O)[C@@H]2C(=O)Nc2ccc(F)c(F)c2F)c1 [Compound 1063] | 10 | 20 | 100 | 100 | 0 | 0 | 0 | 30 | 0 | 0 | 50 | 30 | 0 | 0 | 90 | 70 | 30 | 20 | 50 | 0 | pest or weed control at 125 g/ha [11]: 90%; pest or weed control at 31 g/ha [11]: 80%; pest or weed control at 125 g/ha [12]: 20%; pest or weed control at 31 g/ha [12]: 0%; pest or weed control at 125 g/ha [13]: 0%; pest or weed control at 31 g/ha [13]: 0%; pest or weed control at 125 g/ha [14]: 30%; pest or weed control at 31 g/ha [14]: 0%; plant injury at 125 g/ha [15]: 40%; plant injury at 31 g/ha [15]: 0%
